According to ChEMBL document CHEMBL4888484, “Replenishing the malaria drug discovery pipeline: Screening and hit evaluation of the MMV Hit Generation Library 1 (HGL1) against asexual blood stage Plasmodium falciparum ,using a nano luciferase reporter read-out” (2022):

Key:
Plasmodium falciparum [1] = test: Hit confirmation in dose-response curve in NF54 nanoGlo assay, at 72h; type: functional, organism-based, Erythrocyte; design: timepoint 72 hour; conditions: Plasmodium falciparum, NF54, Erythrocyte, 72 h
Plasmodium falciparum [2] = test: Hit confirmation in dose-response curve in NF54 pLDH assay, at 72h; type: functional, organism-based; design: timepoint 72 hour; conditions: NF54, Erythrocyte
Plasmodium falciparum [3] = test: Hit confirmation in dose-response curve in Dd2 pLDH assay, at 72h; type: functional, organism-based; design: timepoint 72 hour; conditions: Dd2, Erythrocyte
Plasmodium falciparum [4] = test: Hit confirmation in dose-response curve in NF54 nanoGlo assay, at 12h; type: functional, organism-based, Erythrocyte; design: timepoint 12 hour; conditions: Plasmodium falciparum, NF54, Erythrocyte, 12 h
[5] = Hit confirmation in dose-response curve in HepG2 cytotoxicity assay, at 72h; type: toxicity, cell-based; design: timepoint 72 hour; conditions: human, HepG2 cells

| Compound | IC50 (Plasmodium falciparum [1]) [nM] | IC50 (Plasmodium falciparum [2]) [µM] | IC50 (Plasmodium falciparum [3]) [µM] | IC50 (Plasmodium falciparum [4]) [µM] | IC50 at 72 h [5] [µM] |
| --- | --- | --- | --- | --- | --- |
| CCn1cc(-c2nc(-c3ccccc3C)no2)c(=O)c2cc(F)c(N3CCOCC3)cc21 | 3550 | 7.08 | 4.9 | > 10 | > 10 |
| CCC(=O)N1CCc2sc(S(=O)(=O)N3CCN(c4cc(C)ccc4C)CC3)cc2C1 | 5890 | > 10 | > 10 | > 10 | > 10 |
| COc1ccc(S(=O)(=O)N2CCC(c3cc(N)on3)CC2)cc1Cl | 1820 | 6.31 | 3.89 | > 10 | > 10 |
| CCc1nc2cc(N3CCC(C(=O)Nc4ccc5c(c4)OCO5)CC3)cnc2nc1CC | 1290 | > 10 | > 10 | 0.417 | > 10 |
| CC(=O)Nc1c(-c2ccc(C)cc2)c(C)nn1-c1ccc(C(=O)Nc2cc(C)ccn2)cc1 | 2750 | 9.55 | 7.41 | > 10 | > 10 |
| Cc1c(F)cccc1NC(=O)N1CCN(C2=CC3=N[C@@H](C)CN3C=N2)CC1 | 3630 | 2.69 | 4.07 | > 10 | > 10 |
| CCN(C(=O)Cn1cc(-c2ccccc2)c2ncn(CC)c(=O)c21)c1ccccc1 | 759 | > 10 | > 10 | 0.363 | > 10 |
| CC1CCN(C[C@H]2CCCCCN2C(=O)NCCc2ccccc2)CC1 | 3980 | 2.45 | 6.31 | > 10 | > 10 |
| COc1ccc(CC(=O)NCCn2c(C(F)(F)F)nc3ccccc32)cc1 | 2570 | > 10 | > 10 | 1.62 | > 10 |
| Cc1nn(-c2nc3ccccc3[nH]2)c2c1[C@@H](c1cccnc1)CC(=O)N2 | 1550 | 6.46 | > 10 | 2.19 | > 10 |
| CC[C@H]1CN2C=NC(N3CCN(C(=O)Nc4cc(F)cc(F)c4)CC3)=CC2=N1 | 2820 | 1.26 | 3.39 | > 10 | > 10 |
| COc1ccc(CNc2nc(-c3nnc(-c4ccccc4)o3)nc3ccccc23)cc1 | 3020 | > 10 | > 10 | 0.776 | > 10 |
| COc1ccc2c(c1)OC13CCN(C)CC1C2C(C(=O)c1ccccc1OC)C(=O)N3 (stereo not given) | 2000 | > 10 | > 10 | 1.05 | > 10 |
| Cc1oc(-c2ccn[nH]2)cc1S(=O)(=O)Nc1ccc(F)c(Cl)c1 | 5370 | > 10 | > 10 | 2.57 | > 10 |
| CC1CCN(c2nccnc2Oc2ccc(C(=O)NCc3ccccc3Cl)cc2)CC1 | 2450 | 9.55 | 6.61 | > 10 | > 10 |
| Cc1ccc2c(c1)c1c(n2S(=O)(=O)c2ccc(C(C)(C)C)cc2)CCCN(C)C1 | 1480 | 2.29 | 1.35 | > 10 | > 10 |
| Cc1oc(-c2ccc(C(=O)N3CCN(c4ccccc4)CC3)cc2)nc1CN1CCC(C)CC1 | 2140 | 3.39 | > 10 | 2.34 | > 10 |
| Cc1oc(-c2ccn[nH]2)cc1S(=O)(=O)Nc1cccc(Cl)c1 | 1480 | 7.76 | > 10 | 0.933 | > 10 |

| Compound | IC50 (Plasmodium falciparum [1]) [nM] | IC50 (Plasmodium falciparum [2]) [µM] | IC50 (Plasmodium falciparum [3]) [µM] | IC50 (Plasmodium falciparum [4]) [µM] | IC50 at 72 h [5] [µM] |
| --- | --- | --- | --- | --- | --- |
| CCN(CC)c1ccc(C(=O)Nc2ccc3nc(N4CCCC4)cc(C)c3c2)cc1 | 2000 | 3.63 | 3.63 | 4.27 | > 10 |
| Cc1nnc(-c2ccc3ccn(CC(=O)Nc4ccc(F)c(Cl)c4)c3c2)o1 | 2000 | 1 | 2.69 | 3.16 | > 10 |
| COc1ccc(CCNC(=O)c2cc3c(=O)[nH]c(C)cn3n2)cc1OC | 1450 | > 10 | > 10 | 0.457 | > 10 |
| O=C(NCCN1CCCC1)c1ccc2nc(-c3ccc(Cl)cc3)cn2c1 | 2630 | 2.69 | 2.63 | 4.07 | > 10 |
| CCOc1ccc(-c2cc(NC(=O)c3cc(-c4cccnc4)nc4ccccc34)on2)cc1OCC | 1910 | > 10 | 4.9 | 2.69 | > 10 |
| CCc1cccc(NC(=O)N2CCN(C3=CC4=NC[C@H](C)N4C=N3)CC2)c1 | 3090 | 1.12 | 2.95 | > 10 | > 10 |
| COC(=O)c1ccccc1NC(=O)NCCn1nnc2cc(S(=O)(=O)N(C)C)ccc21 | 2570 | > 10 | > 10 | > 10 | > 10 |
| COc1cccc(NC(=O)Cn2c(C)ccc(NS(=O)(=O)c3ccc(C)cc3)c2=O)c1 | 3240 | 7.94 | 3.63 | 9.12 | > 10 |
| O=C(NCc1ccccc1F)C1CCN(c2cncnc2N2CCCC2)CC1 | 3550 | > 10 | 7.24 | 8.71 | > 10 |
| Cc1cc2nc(C)c(=O)n(Cc3ccc(C(=O)NCCN4CCCC[C@@H]4C)cc3)c2cc1C | 4170 | 5.5 | 6.92 | > 10 | > 10 |
| CC(=O)Nc1ccc(C)cc1S(=O)(=O)N1CC=C(c2c(C)n(Cc3ccccc3C)c3ccccc23)CC1 | 1700 | 4.47 | 3.47 | 1.86 | > 10 |
| Cc1cccc(-c2nc(C[N+]3(Cc4nc(-c5cccc(C)c5)oc4C)CCCC3)c(C)o2)c1 | 2820 | 4.79 | 3.39 | > 10 | > 10 |
| CCOC(=O)C1CCC(CN(Cc2ccc(OC)cc2)S(=O)(=O)c2cc(C(=O)Nc3ccc(OCC)cc3)ccc2F)CC1 (stereo not given) | 5010 | > 10 | > 10 | 7.94 | > 10 |
| CC(C)N1CCC2(CC1)N=C(c1ccc3c(c1)OCO3)C[C@@H](c1cc(Cl)ccc1O)N2 | 3800 | > 10 | 8.32 | 4.27 | > 10 |
| CCc1cccc(NC(=O)Cn2ccc3ccc(-c4nnc(C)o4)cc32)c1 | 1820 | 2.69 | 2.4 | 2.63 | > 10 |
| Cc1cc(C)cc(-c2cc3nc(C)cc(N4CCC(C(=O)NCc5cccc(F)c5)CC4)n3n2)c1 | 1480 | 2.45 | 2.04 | 4.37 | > 10 |
| COc1ccc(CNCc2ccc(C)cc2)cc1Cn1ccnc1 | 1860 | 2.69 | 1.41 | 2.88 | > 10 |
| CCn1cc(-c2nc(-c3ccccc3C)no2)c(=O)c2cc(F)c(N3CCCCC3)cc21 | 6030 | 11 | 10.2 | > 10 | > 10 |
